Assay results published in article PMC10682394, “A papain-like cysteine protease-released small signal peptide confers wheat resistance to wheat yellow mosaic virus” (Nature Communications, 2023).
Peptide text beside a SMILES is read from it. * marks the point of attachment. AMC = Cc1cc(=O)oc2cc(N*)ccc12; Cbz = O=C(OCc1ccccc1)*

Biological target: T1, TaRD21A (TaRD21A^S; TaRD21A^R in A96S rows) (Triticum aestivum, UniProt A0A3B6DKH2)
T1 construct: gene LOC123054921; GST fusion from E. coli BL21 (purified), or RFP fusion expressed in N. benthamiana leaves (apoplastic fluid); active bands 25-40 kDa
T1 sequence (A0A3B6DKH2 24-463, stated change not applied): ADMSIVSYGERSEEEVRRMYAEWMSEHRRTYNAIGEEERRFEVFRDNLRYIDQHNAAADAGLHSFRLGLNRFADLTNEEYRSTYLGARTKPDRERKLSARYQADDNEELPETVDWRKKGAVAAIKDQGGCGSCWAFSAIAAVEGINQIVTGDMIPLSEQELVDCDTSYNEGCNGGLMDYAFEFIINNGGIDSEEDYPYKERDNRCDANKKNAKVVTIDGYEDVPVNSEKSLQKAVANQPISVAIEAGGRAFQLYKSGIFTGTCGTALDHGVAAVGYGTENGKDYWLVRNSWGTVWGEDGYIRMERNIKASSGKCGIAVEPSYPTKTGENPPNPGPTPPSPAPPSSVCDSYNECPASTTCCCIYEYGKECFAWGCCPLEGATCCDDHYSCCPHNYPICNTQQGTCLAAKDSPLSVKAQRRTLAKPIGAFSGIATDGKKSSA
Assay: fluorescent substrate assay, purified TaRD21A^S-GST
Assay type: biochemical
Settings: 10 uM substrate

Row | Structure (SMILES) | fluorescent substrate assay, purified TaRD21A^S-GST (RR motif) | fluorescent substrate assay, purified TaRD21A^S-GST (FR motif)
1 | Cc1cc(=O)oc2cc(NC(=O)[C@H](CCCNC(=N)N)NC(=O)[C@H](CCCNC(=N)N)NC(=O)OCc3ccccc3)ccc12 [Z-Arg-Arg-AMC] (Cbz-Arg-Arg-{AMC}) | examined using fluorescent substrates containing RR/FR motifs | –
2 | Cc1cc(=O)oc2cc(NC(=O)[C@H](CCCNC(=N)N)NC(=O)[C@H](Cc3ccccc3)NC(=O)OCc3ccccc3)ccc12 [Z-Phe-Arg-7-amido-4-methylcoumarin] (Cbz-Phe-Arg-{AMC}) | – | examined using fluorescent substrates containing RR/FR motifs
